Experimental data taken from patent US20080161232A1, “C5a Receptor Antagonist” (JERINI AG, priority 2005, published 2008).
Read-outs that look alike come from different tables or passages of the source. Starred links: 1 amine or outer side, 2 acyl side, 3 side chain; linkers in the order of their positions; H or OH if unused. Positions of bridges follow the written chain, without caps; N, C: chain ends. Non-standard residues stand in square brackets, D forms with d. Residues, ends and D or L forms follow the SMILES beside them. X1 = COC1O[C@H](C(=O)[*:2])[C@@H](O)[C@H](O)[C@H]1N[*:1]; Orn(2-imidazolinyl) = N[C@@H](CCCNC1=NCCN1)C(=O)O; Dip = N[C@H](C(=O)O)C(c1ccccc1)c1ccccc1; Bta = N[C@@H](Cc1csc2ccccc12)C(=O)O; 2Thi = N[C@@H](Cc1cccs1)C(=O)O; dCha = N[C@H](CC1CCCCC1)C(=O)O; Pip = O=C(O)[C@@H]1CCCCN1; Nle = CCCC[C@H](N)C(=O)O; Orn = NCCC[C@H](N)C(=O)O; Aze = O=C(O)[C@@H]1CCN1

Experiments:
[1] = Solubility determination for selected C5aR-antagonists; assay type: physicochemical; conditions: for Solubility in 20 mM HEPES pH 7.4 (% of 200 μM): 20 mM HEPES pH 7.4, 24 h at RT
Experimental: Solubility Determination for Selected C5aR-Antagonists
[…] The undissolved part was removed by centrifugation after 24 h. The UV-absorption of the supernatant was measured and compared to a reference solution of the compound in 60% MeOH.

human C5aR(CD88) [2] = molecular target: T1, human C5aR(CD88) (Homo sapiens, UniProt P21730); assay: Determination of the IC50 value in an enzyme release assay (functional assay, antagonistic activity); assay type: cell-based; conditions: for IC50: antagonistic activity, IC50 group in enzyme release assay, RBL cells expressing human C5aR(CD88), read-out: activity (group); for inhibitory activity (in words): functional assay of example 11, noteworthy = IC50 less than 200 nM
T1 construct: expressed in transfected cells; host or cells: rat basophilic leukemia cells (RBL)
T1 sequence (P21730 1-350): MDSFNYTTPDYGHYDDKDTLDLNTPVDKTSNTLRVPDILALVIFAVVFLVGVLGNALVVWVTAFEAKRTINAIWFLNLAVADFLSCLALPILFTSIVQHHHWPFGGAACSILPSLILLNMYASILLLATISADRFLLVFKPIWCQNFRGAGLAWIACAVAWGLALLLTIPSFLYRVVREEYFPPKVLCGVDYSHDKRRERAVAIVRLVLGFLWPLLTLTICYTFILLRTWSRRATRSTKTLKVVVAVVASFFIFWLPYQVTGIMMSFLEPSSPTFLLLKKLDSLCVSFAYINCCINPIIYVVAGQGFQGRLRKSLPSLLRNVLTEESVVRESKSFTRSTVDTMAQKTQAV

human C5aR(CD88) [3] = molecular target: T1, human C5aR(CD88); assay: Determination of EC50-values in an enzyme release assay (agonistic activity); assay type: cell-based; conditions: for EC50: agonistic activity, no C5a added, read-out: EC50; for agonistic activity (in words): cellular assay, up to a concentration of at least 1430 nM
Experimental: The assay procedure was described by Kohl (Kohl 1997 The Anaphylatoxins. In: Dodds, A. W., Sim, R. B. (Eds.), Complement: A Practical Approach. Oxford, pp. 135-163). Basophilic leukemia cells from rats (RBL), which express the human C5aR(CD88), were cultivated in DMEM with 10% fetal bovine serum, 100 U/ml penicillin, 100 μg/ml streptomycin and 2 mM glutamine (all components of the media from Biochrome, Berlin) to confluence at 37° C. and 10% CO2. The following specifications refer to single cell culture flask having a surface of 75 cm^2. Medium was decanted from cells. Cells were washed with 10 ml PBS (Dulbecco's PBS, Biochrome) and subsequently overlayed with 3 ml Cell Dissociation Solution (CDS, Sigma). Cells were incubated for 1 min at room temperature. Subsequently, CDS was removed and the cells were further incubated for 10-15 min at 37° C. for dissociation. In the assay, 20 μl of the solution containing the compound to be tested were used. This solution should not contain more than 2.8% DMSO. For the dilution process, the compounds were diluted in ⅓ or ½ steps. To 20 μl compound solution 75 μl of the RBL-cells were added, which were treated as follows: after dissociation cells were detached and warmed at 37° C. in 10 ml HAG-CM (20 mM HEPES; 125 mM NaCl, 5 mM KCl, 1 mM CaCl2, 1 mM MgCl2, 0,5 mM Glucose, 0,25% BSA. HEPES-preparation: 2.3 g/l HEPES-salt +2.66 g/l HEPES acid). Cells were counted and centrifuged (200×g, 10 min). The cell pellet was resuspended in preheated HAG-CM (i.e. Hepes-buffer NaCl-glucose-solution with calcium and magnesium), and the cell density was adjusted to 2×10^6 cells/ml. The cells were incubated at 37° C. for 5 min. Per ml cell suspension 27 μl of a cytochalasin B-solution were added (100 μg/ml in DMSO, Sigma). The cells were incubated for further 3 min at 37° C. 75 μl of the cell suspension were added to 20 μl compound solution leading to a volume of 95 μl per well. After incubation of the cells for 10 min at 37° C. 10 μl hrC5a (10.5 nM in HAG-CM, Sigma) per well were added. The cells were incubated for additional 5 min at 37° C. The mtp was then transferred to ice and centrifuged for 3 min at 4° C. with 1200×g. 75 μl of the supernatant were added to 100 μl substrate-solution (2.7 mg/ml p-nitrophenyl-N-acetyl-β-D-glucosaminide (Sigma) in 42.5 mM Na-acetate pH 4.5). The mtp was incubated for further 60 min at 37° C. 75 μl 0.4 M glycine pH 10.4 were added per well. The mtp was transferred into a reader and the absorption at 405 nm was measured. IC50-values were obtained following the equation; y=((A-D)/(1+(x/C)^B))+D.
Determination of EC50-Values in an Enzyme Release Assay
The determination of EC50-values was performed according to the procedure given in example II, with the exception that 30 μl of the test compound need to be mixed with 75 μl of the cell suspension mentioned in example 11. Neither preincubation nor addition of C5a for stimulation of enzyme release is needed.

C5aR = molecular target: T2, C5aR (Homo sapiens, UniProt P21730); conditions: PMN membranes, cited from earlier work
T2 construct: measurements with isolated membranes from polymorphonuclear neutrophilic granulocytes (PMN membranes); host or cells: isolated PMN membranes (endogenous receptor)
T2 sequence (P21730 1-350): T1 sequence (P21730 1-350)

[4] = examples of WO 90/09162, read-out: IC50 (binding), WO 90/09162
[5] = examples of WO 92/12168, read-out: IC50 (binding to C5aR), WO 92/12168

Row | Compound | Solubility in 20 mM HEPES pH 7.4 (% of 200 μM) [1] | IC50 (human C5aR(CD88) [2]) [nM] | EC50 (human C5aR(CD88) [3]) [nM] | agonistic activity (in words) (human C5aR(CD88) [3]) | other results
1 | CC(=O)N[C@@H](Cc1ccccc1)C(=O)N[C@H]1CCCNC(=O)[C@H](CCCNC(=N)N)NC(=O)[C@H](Cc2c[nH]c3ccccc23)NC(=O)[C@@H](CC2CCCCC2)NC(=O)[C@@H]2CCCN2C1=O [Compound 40, Ac-Phe-[Orn-Pro-cha-Trp-Arg], reference compound] | 94 % of 200 μM |  |  |  | solubility in aqueous HEPES buffer (pH 7.4) [1]: 94%
2 | CC(=O)N[C@@H](Cc1ccccc1)C(=O)N[C@@H](CCCN)C(=O)N1CCC[C@H]1C(=O)N[C@H](CC1CCCCC1)C(=O)N[C@@H](Cc1csc2ccccc12)C(=O)N[C@@H](Cc1ccccc1)C(N)=O [Compound 62, Ac-Phe-Orn-Pro-cha-Bta-Phe-NH2] (Ac-F[Orn]P[dCha][Bta]F-NH2) |  | 20 to 50 | > 100000 | pure antagonists | 
3 | CC(=O)N[C@@H](Cc1ccccc1)C(=O)N[C@@H](CCCN)C(=O)N1CC[C@H]1C(=O)N[C@H](CC1CCCCC1)C(=O)N[C@@H](Cc1c[nH]c2ccccc12)C(=O)N[C@@H](Cc1ccccc1)C(N)=O [Compound 83, Ac-Phe-Orn-Aze-cha-Trp-Phe-NH2] (Ac-F[Orn][Aze][dCha]WF-NH2) |  | 20 to 50 | > 100000 | pure antagonists | 
4 | CC(=O)N[C@@H](Cc1ccccc1)C(=O)N[C@@H](CCCNC1=NCCN1)C(=O)N1CCC[C@H]1C(=O)N[C@H](CC1CCCCC1)C(=O)N[C@@H](Cc1csc2ccccc12)C(=O)N[C@@H](Cc1ccccc1)C(N)=O [Compound 150, Ac-Phe-Arg(CH2—CH2)-Pro-cha-Bta-Phe-NH2] (Ac-F[Orn(2-imidazolinyl)]P[dCha][Bta]F-NH2) |  | 5 to 10 |  | pure antagonists | inhibitory activity (in words) (human C5aR(CD88) [2]): noteworthy inhibitory activity
5 | (N-Ethyl)Phe-Lys-Ala-Cha-Ala-Leu-N-Methyl(D)ala-Arg-OH |  |  |  |  | IC50 (C5aR; [4]): 11 nM
6 | (N-Methyl)Phe-Lys-Pro-cha-Phe-Phenylbutanoyl |  |  |  |  | IC50 (C5aR; [5]): 2600 nM
7 | (N-Methyl)Phe-Lys-Pro-cha-ψ55 CH2—N(CH2CH2C6H5)}-Arg-OH |  |  |  |  | IC50 (C5aR; [5]): 360 nM
8 | Ac-Phe-Lys-Ala-Cha-Ala-Leu-N-Methyl(D)ala-Arg-OH |  |  |  |  | IC50 (C5aR; [4]): 12 nM

Continued, in another order:

Row | Solubility in 20 mM HEPES pH 7.4 (% of 200 μM) [1] | IC50 (human C5aR(CD88) [2]) [nM] | EC50 (human C5aR(CD88) [3]) [nM] | agonistic activity (in words) (human C5aR(CD88) [3]) | Compound | other results
9 | 84 % of 200 μM |  |  |  | CCCC[C@@H]1NC(=O)[C@H](Cc2c[nH]c3ccccc23)NC(=O)[C@@H](CC2CCCCC2)NC(=O)[C@@H]2CCCN2C(=O)[C@@H](NC(=O)[C@H](Cc2ccccc2)NC(=O)[C@H]2OC(OC)[C@H](NC(C)=O)[C@@H](O)[C@@H]2O)CCCNC1=O (stereo partly drawn) [Compound 4, X-Phe-[Orn-Pro-cha-Trp-Nle]; X = 2-acetamido-1-methyl-glucuronyl] (Ac-[X1]F[Orn]P[dCha]W[Nle]; lactam 3-C) | solubility in aqueous HEPES buffer (pH 7.4) [1]: 84%
10 | 22 % of 200 μM | 20 to 50 | > 1430 |  | CCCC[C@@H]1NC(=O)[C@H](Cc2c[nH]c3ccccc23)NC(=O)[C@@H](CC2CCCCC2)NC(=O)[C@@H]2CCCN2C(=O)[C@@H](NC(=O)[C@H](Cc2ccccc2)NC(C)=O)CCCNC1=O [Compound 28, Ac-Phe-[Orn-Pro-cha-Trp-Nle]] (Ac-F[Orn]P[dCha]W[Nle]; lactam 2-C) | inhibitory activity (in words) (human C5aR(CD88) [2]): without significant loss of activity; inhibitory activity (in words) (human C5aR(CD88) [2]; listed as Ac-Phe-[Orn-Pro-cha-Trp-Nle]): noteworthy inhibitory activity; solubility in aqueous HEPES buffer (pH 7.4) [1]: 22%
11 | 45 % of 200 μM | 10 to 20 | > 1430 | pure antagonists | CCCC[C@@H]1NC(=O)[C@H](Cc2c[nH]c3ccccc23)NC(=O)[C@@H](CC2CCCCC2)NC(=O)[C@@H]2CCCN2C(=O)[C@@H](NC(=O)[C@@H](N)Cc2ccccc2)CCCNC1=O [Compound 42, H-Phe-[Orn-Pro-cha-Trp-Nle]] (H-F[Orn]P[dCha]W[Nle]; lactam 2-C) | inhibitory activity (in words) (human C5aR(CD88) [2]): noteworthy inhibitory activity
12 | 93 % of 200 μM |  |  | pure antagonists | CCCC[C@@H]1NC(=O)[C@H](Cc2c[nH]c3ccccc23)NC(=O)[C@@H](CC2CCCCC2)NC(=O)[C@@H]2CCCN2C(=O)[C@@H](NC(=O)[C@H](Cc2ccccc2)NC(=O)[C@H](CCCCN)NC(C)=O)CCCNC1=O [Compound 43, Ac-Lys-Phe-[Orn-Pro-cha-Trp-Nle]] (Ac-KF[Orn]P[dCha]W[Nle]; lactam 3-C) | inhibitory activity (in words) (human C5aR(CD88) [2]): noteworthy inhibitory activity
13 |  | 20 to 50 | > 100000 | pure antagonists | CC(=O)N[C@@H](Cc1cccs1)C(=O)N[C@@H](CCCN)C(=O)N1CCCC[C@H]1C(=O)N[C@H](CC1CCCCC1)C(=O)N[C@@H](Cc1csc2ccccc12)C(=O)N[C@@H](Cc1ccccc1)C(N)=O [Compound 67, Ac-Thi-Orn-Pip-cha-Bta-Phe-NH2] (Ac-[2Thi][Orn][Pip][dCha][Bta]F-NH2) | 
14 |  | 200 to 2000 | > 100000 | pure antagonists | CC(=O)N[C@H](C(=O)N[C@@H](CCCN)C(=O)N1CCC[C@H]1C(=O)N[C@H](CC1CCCCC1)C(=O)N[C@@H](Cc1c[nH]c2ccccc12)C(=O)N[C@@H](Cc1ccccc1)C(N)=O)C(c1ccccc1)c1ccccc1 [Compound 71, Ac-Ebw-Orn-Pro-cha-Trp-Phe-NH2] (Ac-[Dip][Orn]P[dCha]WF-NH2) | 
15 |  | 50 to 200 | > 100000 | pure antagonists | CC(=O)N[C@@H](Cc1ccccc1)C(=O)N[C@@H](Cc1c[nH]c2ccccc12)C(=O)N1CCC[C@H]1C(=O)N[C@H](CC1CCCCC1)C(=O)N[C@@H](Cc1c[nH]c2ccccc12)C(=O)N[C@@H](Cc1ccccc1)C(N)=O [Compound 84, Ac-Phe-Trp-Pro-cha-Trp-Phe-NH2] (Ac-FWP[dCha]WF-NH2) | 
16 |  | 20 to 50 | > 100000 | pure antagonists | CC(=O)N[C@@H](Cc1ccccc1)C(=O)N[C@@H](CCCNC(=N)N)C(=O)N1CCC[C@H]1C(=O)N[C@H](CC1CCCCC1)C(=O)N[C@@H](Cc1c[nH]c2ccccc12)C(=O)N[C@@H](Cc1ccccc1)C(N)=O [Compound 88, Ac-Phe-Arg-Pro-cha-Trp-Phe-NH2] (Ac-FRP[dCha]WF-NH2) | 
